The results in this text go back to patent US20240294499A1, “TARGETED PROTEIN DEGRADATION USING BIFUNCTIONAL COMPOUNDS THAT BIND UBIQUITIN LIGASE AND TARGET MCL-1 PROTEIN” (Captor Therapeutics S.A., priority 2021, published 2024).

Counter-ions that a name gives are not always drawn.

Sequence of [MCL-1]-[compound of formula (I)]-[CRBN/DDB1] complex (Q07820 whole entry): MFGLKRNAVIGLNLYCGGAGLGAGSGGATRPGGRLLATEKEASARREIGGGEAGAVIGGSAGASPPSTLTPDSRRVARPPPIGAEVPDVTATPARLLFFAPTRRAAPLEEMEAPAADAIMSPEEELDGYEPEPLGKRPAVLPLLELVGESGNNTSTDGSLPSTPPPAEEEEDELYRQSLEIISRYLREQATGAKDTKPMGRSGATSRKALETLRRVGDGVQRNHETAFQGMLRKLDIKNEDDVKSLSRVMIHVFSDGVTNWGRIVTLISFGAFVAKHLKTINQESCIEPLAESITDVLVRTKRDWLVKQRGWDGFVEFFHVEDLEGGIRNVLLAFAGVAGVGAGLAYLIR
Sequence of [MCL-1]-[compound of formula (I)]-[CRBN/DDB1] complex (Q96SW2 whole entry): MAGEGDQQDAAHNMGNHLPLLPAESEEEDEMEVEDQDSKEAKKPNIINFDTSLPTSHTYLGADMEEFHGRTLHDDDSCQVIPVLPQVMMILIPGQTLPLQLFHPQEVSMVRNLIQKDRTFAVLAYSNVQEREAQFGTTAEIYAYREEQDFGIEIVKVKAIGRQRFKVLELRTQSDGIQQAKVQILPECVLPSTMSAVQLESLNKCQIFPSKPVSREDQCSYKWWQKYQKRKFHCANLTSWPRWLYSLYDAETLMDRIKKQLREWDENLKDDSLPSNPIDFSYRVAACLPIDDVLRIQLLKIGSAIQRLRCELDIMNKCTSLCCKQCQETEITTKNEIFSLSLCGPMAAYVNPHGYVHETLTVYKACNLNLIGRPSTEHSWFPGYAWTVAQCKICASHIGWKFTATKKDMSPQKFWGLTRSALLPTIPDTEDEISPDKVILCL
Sequence of [MCL-1]-[compound of formula (I)]-[CRBN/DDB1] complex (Q16531 whole entry partner): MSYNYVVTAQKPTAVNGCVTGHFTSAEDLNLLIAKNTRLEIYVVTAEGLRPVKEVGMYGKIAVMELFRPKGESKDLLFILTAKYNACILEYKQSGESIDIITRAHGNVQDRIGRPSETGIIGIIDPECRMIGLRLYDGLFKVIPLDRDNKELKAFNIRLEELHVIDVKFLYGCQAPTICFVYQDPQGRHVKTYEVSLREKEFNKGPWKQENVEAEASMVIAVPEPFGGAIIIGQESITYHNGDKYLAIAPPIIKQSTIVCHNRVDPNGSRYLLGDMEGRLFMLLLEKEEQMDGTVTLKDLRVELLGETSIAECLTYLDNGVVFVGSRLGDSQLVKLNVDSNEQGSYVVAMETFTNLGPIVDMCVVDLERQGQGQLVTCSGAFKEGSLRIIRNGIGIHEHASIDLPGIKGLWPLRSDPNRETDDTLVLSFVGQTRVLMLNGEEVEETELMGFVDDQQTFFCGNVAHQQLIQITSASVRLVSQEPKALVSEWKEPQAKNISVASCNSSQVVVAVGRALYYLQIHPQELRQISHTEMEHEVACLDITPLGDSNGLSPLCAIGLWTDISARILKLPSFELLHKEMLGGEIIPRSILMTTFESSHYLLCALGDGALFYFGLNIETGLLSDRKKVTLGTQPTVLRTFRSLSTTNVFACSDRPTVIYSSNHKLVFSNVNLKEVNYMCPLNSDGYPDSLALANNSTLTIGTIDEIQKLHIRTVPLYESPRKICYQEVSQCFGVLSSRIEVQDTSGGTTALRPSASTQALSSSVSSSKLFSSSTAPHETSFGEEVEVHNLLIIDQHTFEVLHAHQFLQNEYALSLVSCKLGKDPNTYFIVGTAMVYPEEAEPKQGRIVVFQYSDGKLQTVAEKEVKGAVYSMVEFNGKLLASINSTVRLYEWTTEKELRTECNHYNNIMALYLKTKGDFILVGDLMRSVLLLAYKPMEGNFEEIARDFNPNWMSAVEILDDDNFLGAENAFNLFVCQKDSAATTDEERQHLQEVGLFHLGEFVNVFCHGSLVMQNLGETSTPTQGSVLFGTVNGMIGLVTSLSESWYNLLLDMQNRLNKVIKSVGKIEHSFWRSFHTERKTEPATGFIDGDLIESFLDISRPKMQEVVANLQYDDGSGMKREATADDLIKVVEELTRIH

For one assay, the target named is [MCL-1]-[compound of formula (I)]-[CRBN/DDB1] complex (Homo sapiens, UniProt Q07820+Q96SW2). In words: AlphaLISA dose response ternary complex formation assay. The class given is binding. The note with it: read-out: AlphaLISA dose response Average pEC50 by molecule (converted). As to the method:
The effect of the bifunctional compounds of the invention on the formation of a ternary complex composed of [MCL-1]-[compound of formula (I)]-[CRBN/DDB1] was investigated with two methods: AlphaLISA dose response assay or HTRF ternary complex assay.
Two types of protein solution were prepared: • 40 nM biotinylated hMCL-1, 40 μg/ml AlphaScreen Streptavidin-coated Donor Beads in PBS buffer with 0.1% Tween-20 and 1 mM DTT, • 200 nM 6×His-CRBN/Strep-DDB1, 40 μg/ml AlphaLISA Anti-6×His Acceptor beads in PBS buffer with 0.1% Tween-20 and 1 mM DTT.
The prepared solutions were incubated at room temperature for 45 min and then the solution containing the donor beads was mixed with the solution containing the acceptor beads.
The tested compounds were dispensed onto a white 384-well AlphaPlate 384 SW. DMSO was backfilled to all wells, resulting in a final DMSO content of 2%. Wells containing only DMSO served as background. Next, 10 μl of solution with donor and acceptor beads was added to the wells.
The plate was sealed with transparent film and shaken using a VibroTurbulator for 60 see at room temperature, level 3. The plate was then spun down shortly (10 s, 1000 rcf, room temperature) and incubated at 25° C. for 30 min.
The read-out was performed with PerkinElmer Enspire Multimode Plate Reader (method for AlphaLISA 384-well low volume, Filterset: λexc=680 nm, λem=615 nm).
The results were analyzed as follows: • 1) an average of luminescence for background signal was calculated and used as a negative control; • 2) average of the maximum measured luminescence for 233 was calculated and used as an internal positive control; • 3) raw luminescence values were normalized against positive and negative controls; • 4) concentration points above the hook point were excluded; • 5) EC50 and pEC50 values were determined.
(Alpha assays give light when donor and acceptor beads are brought close together.)
Turning to `Cc1c2c(nn1C)CSCc1cc(n(C)n1)CSc1cc(c3ccccc3c1)OCCCc1c(C(=O)NS(=O)(=O)CCNC(=O)CCOCCOCCNc3cccc4c3C(=O)N(C3CCC(=O)NC3=O)C4=O)n(C)c3c-2c(Cl)ccc13` (stereo not drawn) [Compound 261, N-{2-[({17-chloro-5,13,14,22-tetramethyl-28-oxa-2,9-dithia-5,6,12,13,22-pentaazaheptacyclo[27.7.1.1^4,^7.0^11,^15.0,^16,^21.0^20,^24.0^30,^35]octatriaconta-1(37),4(38),6,11,14,16,18,20,23,29,31,33,35-tridecaen-23-yl}formamido)sulfonyl]ethyl}-3-[2-(2-{[2-(2,6-dioxopiperidin-3-yl)-1,3-dioxo-2,3-dihydro-1H-isoindol-4-yl]amino}ethoxy)ethoxy]propanamide], the EC50 was less than 1000 nM.
Same read-out and setting: the result for `Cc1nn(C)c(C)c1-c1c(Cl)ccc2c(CCCN(C)c3cccc4ccccc34)c(C(=O)O)n(CCN3CCN(C(=O)COc4cccc5c4CN(C4CCC(=O)NC4=O)C5=O)CC3)c12` (stereo not drawn) [Compound 353, 6-Chloro-1-(2-(4-(2-((2-(2,6-dioxopiperidin-3-yl)-1-oxoisoindolin-4-yl)oxy)acetyl)piperazin-1-yl)ethyl)-3-(3-(methyl(naphthalen-1-yl)amino)propyl)-7-(1,3,5-trimethyl-1H-pyrazol-4-yl)-1H-indole-2-carboxylic acid] reads less than 1000 nM; that for `Cc1nn(C)c(C)c1-c1c(Cl)ccc2c(CCCOc3cccc4ccccc34)c(C(=O)O)n(CCN3C[C@@H]4C[C@H]3CN4C(=O)COc3cccc4c3CN(C3CCC(=O)NC3=O)C4=O)c12` (stereo partly drawn) [Compound 209, 6-chloro-1-{2-[(1S,4S)-5-(2-{[2-(2,6-dioxopiperidin-3-yl)-1-oxo-2,3-dihydro-1H-isoindol-4-yl]oxy}acetyl)-2,5-diazabicyclo[2.2.1]heptan-2-yl]ethyl}-3-[3-(naphthalen-1-yloxy)propyl]-7-(1,3,5-trimethyl-1H-pyrazol-4-yl)-1H-indole-2-carboxylic acid], less than 100 nM.
Still for that read-out and setting: for `Cc1nn(C)c(C)c1-c1c(Cl)ccc2c(CCCOc3cccc4c3CCCC4)c(C(=O)O)n(CCN3CCN(C(=O)COc4cccc5c4CN(C4CCC(=O)NC4=O)C5=O)CC3)c12` (stereo not drawn) [Compound 219, 6-chloro-1-(2-(4-(2-((2-(2,6-dioxopiperidin-3-yl)-1-oxoisoindolin-4-yl)oxy)acetyl)piperazin-1-yl)ethyl)-3-(3-((5,6,7,8-tetrahydronaphthalen-1-yl)oxy)propyl)-7-(1,3,5-trimethyl-1H-pyrazol-4-yl)-1H-indole-2-carboxylic acid] the value was less than 10 nM.
On the same count and under the same terms, the result for `Cc1nn(C)c(C)c1-c1c(Cl)ccc2c(CCCOc3cccc4ccccc34)c(C(=O)O)n(CCN3CC4CC(C3)N4C(=O)COc3cccc4c3C(=O)N(C3CCC(=O)NC3=O)C4=O)c12` (stereo not drawn) [Compound 208, 6-chloro-1-(2-(6-(2-((2-(2,6-dioxopiperidin-3-yl)-1,3-dioxoisoindolin-4-yl)oxy)acetyl)-3,6-diazabicyclo[3.1.1]heptan-3-yl)ethyl)-3-(3-(naphthalen-1-yloxy)propyl)-7-(1,3,5-trimethyl-1H-pyrazol-4-yl)-1H-indole-2-carboxylic acid] reads less than 100 nM; that for `Cc1nn(CCCOCCOCCNc2cccc3c2C(=O)N(C2CCC(=O)NC2=O)C3=O)c(C)c1-c1cccc2c(CCCOc3cccc4ccccc34)c(C(=O)O)n(CCN3CCOCC3)c12` (stereo not drawn) [Compound 232, 7-(1-(3-(2-(2-((2-(2,6-dioxopiperidin-3-yl)-1,3-dioxoisoindolin-4-yl)amino)ethoxy)ethoxy)propyl)-3,5-dimethyl-1H-pyrazol-4-yl)-1-(2-morpholinoethyl)-3-(3-(naphthalen-1-yloxy)propyl)-1H-indole-2-carboxylic acid], less than 1000 nM; that for `Cc1nn(C)c(C)c1-c1c(Cl)ccc2c(CCCOc3cccc4ccccc34)c(C(=O)O)n(CCN3CCN(C(=O)COc4cc(C(F)(F)F)nc5c(C(=O)NC6CCC(=O)NC6=O)scc45)CC3)c12` (stereo not drawn) [Compound 267, 6-chloro-1-(2-{4-[2-({7-[(2,6-dioxopiperidin-3-yl)carbamoyl]-2-(trifluoromethyl)thieno[3,4-b]pyridin-4-yl}oxy)acetyl]piperazin-1-yl}ethyl)-3-[3-(naphthalen-1-yloxy)propyl]-7-(1,3,5-trimethyl-1H-pyrazol-4-yl)-1H-indole-2-carboxylic acid], less than 100 nM.
For the compound `Cc1c(-c2cccc3c(CCCOc4cccc5ccccc45)c(C(=O)O)n(CCN4CCN(C(=O)COc5cccc6c5C(=O)N(C5CCC(=O)NC5=O)C6=O)CC4)c23)c(COc2ccc(Br)c(C=O)c2)nn1C` (stereo not drawn) [Compound 251, 7-(3-((4-Bromo-3-formylphenoxy)methyl)-1,5-dimethyl-1H-pyrazol-4-yl)-1-(2-(4-(2-((2-(2,6-dioxopiperidin-3-yl)-1,3-dioxoisoindolin-4-yl)oxy)acetyl)piperazin-1-yl)ethyl)-3-(3-(naphthalen-1-yloxy)propyl)-1H-indole-2-carboxylic acid], the EC50 is less than 100 nM.
As to `Cc1nn(C)c(COc2ccc(N3CCN(S(=O)(=O)N(C)C)CC3)cc2)c1-c1cccc2c(CCCOc3cccc4ccccc34)c(C(=O)O)n(CCN3CCN(CCCOCCOCCNc4cccc5c4C(=O)N(C4CCC(=O)NC4=O)C5=O)CC3)c12` (stereo not drawn) [Compound 247, 7-(5-((4-(4-(N,N-dimethylsulfamoyl)piperazin-1-yl)phenoxy)methyl)-1,3-dimethyl-1H-pyrazol-4-yl)-1-(2-(4-(3-(2-(2-((2-(2,6-dioxopiperidin-3-yl)-1,3-dioxoisoindolin-4-yl)amino)ethoxy)ethoxy)propyl)piperazin-1-yl)ethyl)-3-(3-(naphthalen-1-yloxy)propyl)-1H-indole-2-carboxylic acid trifluoroacetate], the EC50 is less than 1000 nM.
The same measure, in the same setting: the result for `Cc1nn(C)c(C)c1-c1c(Cl)ccc2c(CCCOc3cccc4c3C3CCC4C3)c(C(=O)O)n(CCN3CCN(C(=O)COc4cccc5c4CN(C4CCC(=O)NC4=O)C5=O)CC3)c12` (stereo not drawn) [Compound 352, 6-Chloro-1-(2-(4-(2-((2-(2,6-dioxopiperidin-3-yl)-1-oxoisoindolin-4-yl)oxy)acetyl)piperazin-1-yl)ethyl)-3-(3-((1,2,3,4-tetrahydro-1,4-methanonaphthalen-5-yl)oxy)propyl)-7-(1,3,5-trimethyl-1H-pyrazol-4-yl)-1H-indole-2-carboxylic acid] reads less than 1000 nM.

The next assay relates to MV-4-11 cells. In words: Cell viability assay (CellTiter-Glo), MV-4-11. The class given is cell-based. The note with it: Homo sapiens, MV4-11, 24 hours incubation, 1% FBS, read-out: Average pIC50 by molecule MV-4-11 (converted). The source says:
The effect of various compounds of the invention on the viability of OPM-2, MV-4-11 and ARH-77 cell lines was investigated, using the CTG protocol described below.
OPM-2 and MV-4-11 cell lines are derived from multiple myeloma and acute myeloid leukaemia, respectively. Both cell lines are described in the literature as MCL-1 dependent lines, as opposed to lymphoblast-like ARH-77 cell line, which is described as independent of MCL-1 (Tron A E et al. Nat Commun. 2018; 9: 5341; Caenepeel S et al. Cancer Discov. 2018 December; 8(12):1582-1597).
Cells (OPM-2, MV-4-11 or ARH-77) were seeded on […] in a growth medium with FBS reduced to 1%. Next, compound stocks were pre-diluted in DMSO and added directly to the cells growth medium (final DMSO concentration: 0.5%). Compound concentrations used in this assay: 1/3 dilutions starting at 30 uM (9 to 12 points).
After 24 hours of incubation, cell viability was evaluated using CellTiter-Glo Luminescent Cell Viability Assay (Promega, cat #G7572). Luminescence signal was measured using a CLARIOstar Plus Multi-Mode Microplate Reader (574-590 nm).
Results were normalized to DMSO control.
As for `Cc1nn(C)c(C)c1-c1c(Cl)ccc2c(CCCOc3cccc4ccccc34)c(C(=O)O)n(CCN3CCN(C(=O)CCc4nc5c(C(=O)NC6CCC(=O)NC6=O)cccc5[nH]4)CC3)c12` (stereo not drawn) [Compound 265], the IC50 was not above 1000 nM.
Same read-out and setting: the result for `Cc1nn(C)c(C)c1-c1c(Cl)ccc2c(CCCOc3cccc4ccccc34)c(C(=O)O)n(CCN3CCN(C(=O)COc4cccc5c4C(=O)N(C4CCC(=O)N(C)C4=O)C5=O)CC3)c12` (stereo not drawn) [Compound 205, 6-chloro-1-(2-(4-(2-((2-(1-methyl-2,6-dioxopiperidin-3-yl)-1,3-dioxoisoindolin-4-yl)oxy)acetyl)piperazin-1-yl)ethyl)-3-(3-(naphthalen-1-yloxy)propyl)-7-(1,3,5-trimethyl-1H-pyrazol-4-yl)-1H-indole-2-carboxylic acid] reads not above 316 nM.
